In ChEMBL document CHEMBL1201862, “PubChem BioAssay data set” (2004):
Calls of active or inactive are those of the source. Cut-off read from the data, not from the text of the source, for most assays here: actives have a measured EC50 and inactives only a lower limit.

What was measured:
[1] = Luminescence Cell-Based Dose Response HTS to Identify Activators of Luciferase Translation or Activity in H4 […] Cells. [Related pubchem assays: 1829 (Project Summary), 1814 (Primary HTS)]; format: functional
[2] = test system: H4; assay: Luminescence Cell-Based Dose Response HTS to Identify Activators of 5'UTR Stem-Loop Driven Prion Protein mRNA Translation in H4 Neuroglioblastoma Cells. [Related pubchem assays: 1829 (Project Summary), 1814 (Primary HTS)]; format: functional; conditions: Homo sapiens
[3] = test system: BJ; assay: cytotoxicity toward BJ-TERT fibroblasts, dose response, cell-based, RAS-independent, luminescence (AID 1933); format: functional; conditions: Homo sapiens
[4] = test system: BJ; assay: cells; format: functional, cell-based; conditions: Homo sapiens
[5] = test system: BJ; assay: cytotoxicity toward BJ-TERT-LT-ST fibroblasts, dose response, cell-based, RAS-independent, luminescence (AID 1935); format: functional; conditions: Homo sapiens;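 note: BJ fibroblasts immortalized with TERT plus LT and ST oncogenes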
[6] = cytotoxicity toward DRD oncogenic fibroblasts, dose response, cell-based, non-viral oncogenic, luminescence (AID 1934); format: functional; conditions: Homo sapiens
[7] = molecular target: T1, Replicative DNA helicase DnaB (Mycobacterium tuberculosis, UniProt P9WMR3); assay: DnaB intein splicing inhibitors, dose response, biochemical, cell-free fluorescence (AID 449749); format: functional
T1 sequence (P9WMR3 whole entry): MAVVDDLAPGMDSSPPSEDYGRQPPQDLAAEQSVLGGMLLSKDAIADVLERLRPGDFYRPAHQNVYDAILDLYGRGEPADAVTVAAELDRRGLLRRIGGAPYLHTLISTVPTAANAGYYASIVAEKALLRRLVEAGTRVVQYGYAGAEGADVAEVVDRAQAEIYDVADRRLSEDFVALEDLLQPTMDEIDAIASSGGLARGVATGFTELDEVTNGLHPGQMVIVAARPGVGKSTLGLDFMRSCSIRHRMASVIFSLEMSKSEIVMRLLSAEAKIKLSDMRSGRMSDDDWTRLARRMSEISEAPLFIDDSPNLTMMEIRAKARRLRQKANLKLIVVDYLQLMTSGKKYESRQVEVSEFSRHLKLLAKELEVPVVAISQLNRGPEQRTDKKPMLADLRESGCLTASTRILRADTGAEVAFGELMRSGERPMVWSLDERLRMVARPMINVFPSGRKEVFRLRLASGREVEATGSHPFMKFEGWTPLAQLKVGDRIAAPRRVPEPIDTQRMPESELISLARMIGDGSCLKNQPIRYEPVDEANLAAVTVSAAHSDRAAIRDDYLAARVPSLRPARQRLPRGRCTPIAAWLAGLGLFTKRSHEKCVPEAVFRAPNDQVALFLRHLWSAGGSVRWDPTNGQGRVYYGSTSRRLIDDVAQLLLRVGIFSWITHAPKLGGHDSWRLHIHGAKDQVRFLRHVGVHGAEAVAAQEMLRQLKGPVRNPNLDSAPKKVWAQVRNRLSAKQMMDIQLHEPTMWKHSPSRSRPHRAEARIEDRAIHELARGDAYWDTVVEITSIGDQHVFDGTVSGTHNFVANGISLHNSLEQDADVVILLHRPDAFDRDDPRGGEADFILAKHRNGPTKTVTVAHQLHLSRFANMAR

[8] = molecular target: T2, Protein RecA (Mycobacterium tuberculosis, UniProt P9WHJ3); assay: Fluorescence Cell-Free Homogeneous Dose Retest to Identify Inhibitors of RecA-Intein Splicing Activity. [Related pubchem assays (depositor defined):AID2097, AID2223, AID489010, AID492950]; format: functional
T2 sequence (P9WHJ3 whole entry): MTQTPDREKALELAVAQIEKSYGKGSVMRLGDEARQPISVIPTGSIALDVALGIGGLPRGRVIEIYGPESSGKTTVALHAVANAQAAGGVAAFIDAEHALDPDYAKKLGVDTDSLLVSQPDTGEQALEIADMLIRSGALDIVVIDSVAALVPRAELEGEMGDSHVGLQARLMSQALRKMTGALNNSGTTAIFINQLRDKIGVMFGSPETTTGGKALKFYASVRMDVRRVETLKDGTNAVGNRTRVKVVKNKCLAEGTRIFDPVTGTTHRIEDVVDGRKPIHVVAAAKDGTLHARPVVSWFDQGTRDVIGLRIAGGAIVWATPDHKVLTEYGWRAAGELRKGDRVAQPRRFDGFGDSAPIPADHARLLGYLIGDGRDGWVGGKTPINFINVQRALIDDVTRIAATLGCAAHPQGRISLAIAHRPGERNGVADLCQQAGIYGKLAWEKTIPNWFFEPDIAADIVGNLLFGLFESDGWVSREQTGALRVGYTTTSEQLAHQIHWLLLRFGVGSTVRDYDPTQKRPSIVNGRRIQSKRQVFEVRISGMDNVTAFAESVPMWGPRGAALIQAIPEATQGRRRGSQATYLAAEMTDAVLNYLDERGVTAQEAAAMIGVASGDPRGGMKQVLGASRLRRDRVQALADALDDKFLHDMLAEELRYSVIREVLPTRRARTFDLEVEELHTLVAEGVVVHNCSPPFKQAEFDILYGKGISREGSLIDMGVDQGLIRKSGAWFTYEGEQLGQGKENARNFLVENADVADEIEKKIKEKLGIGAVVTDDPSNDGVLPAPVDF

[9] = molecular target: Luciferin 4-monooxygenase (Photinus pyralis, UniProt P08659); assay: firefly luciferase enzyme inhibitors, dose response, biochemical, luminescence (AID 1891)
Sequence of Luciferin 4-monooxygenase (P08659 whole entry): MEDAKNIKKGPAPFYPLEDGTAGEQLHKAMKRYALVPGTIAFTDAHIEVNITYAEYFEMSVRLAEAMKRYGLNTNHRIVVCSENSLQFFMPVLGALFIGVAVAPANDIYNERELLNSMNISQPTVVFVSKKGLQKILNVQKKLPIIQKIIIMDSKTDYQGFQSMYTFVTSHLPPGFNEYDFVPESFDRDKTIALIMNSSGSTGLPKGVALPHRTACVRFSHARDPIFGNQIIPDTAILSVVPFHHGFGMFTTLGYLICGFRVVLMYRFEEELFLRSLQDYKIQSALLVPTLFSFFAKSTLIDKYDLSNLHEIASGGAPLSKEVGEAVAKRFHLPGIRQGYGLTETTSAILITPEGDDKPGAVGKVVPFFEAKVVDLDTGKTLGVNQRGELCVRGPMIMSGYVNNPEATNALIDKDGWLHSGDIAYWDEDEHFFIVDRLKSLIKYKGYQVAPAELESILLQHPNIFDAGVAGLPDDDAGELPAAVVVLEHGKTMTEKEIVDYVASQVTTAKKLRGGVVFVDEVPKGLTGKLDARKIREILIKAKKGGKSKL

[10] = Luminescence Cell-Based Dose Confirmation HTS to Identify Inhibitors of Platelet Dense Granule Release. [Related pubchem assays: 1663 (Primary HTS), 1678 (Summary of Project)]; format: functional
[11] = molecular target: T3, Calpain-2 catalytic subunit (Sus scrofa, UniProt P43367); assay: pig calpain II inhibitor potency, dose response, biochemical, fluorogenic peptide substrate (AID 1420); format: functional
T3 sequence (P43367 whole entry): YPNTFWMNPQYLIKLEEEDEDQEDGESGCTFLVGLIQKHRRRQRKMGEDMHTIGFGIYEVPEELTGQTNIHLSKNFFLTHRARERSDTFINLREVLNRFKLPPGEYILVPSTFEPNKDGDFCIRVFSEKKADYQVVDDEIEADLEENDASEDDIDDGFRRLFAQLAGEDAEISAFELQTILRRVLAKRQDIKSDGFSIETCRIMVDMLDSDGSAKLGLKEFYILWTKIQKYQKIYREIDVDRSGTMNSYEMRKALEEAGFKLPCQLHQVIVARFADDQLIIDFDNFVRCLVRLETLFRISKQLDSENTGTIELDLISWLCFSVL

[12] = inhibitors of firefly luciferase expression or activity, dose response, H4 neuroglioma cells, luminescence (AID 1990); format: functional, cell-based
[13] = Luminescence Cell-Based Dose Response HTS to Identify Inhibitors of 5'UTR Stem-Loop Driven Prion Protein mRNA Translation in H4 Neuroglioblastoma Cells. [Related pubchem assays: 1827 (Project Summary), 1813 (Primary HTS)]; format: functional
[14] = inhibitors of SNCA 5'UTR-driven reporter translation, confirmation, H4 neuroglioma cells, luminescence (AID 1988); format: functional, cell-based
[15] = NIH-3T3 fibroblast cytotoxicity, dose response, cytotoxicity control, cell-based, fluorescence, Alamar Blue, secondary assay (AID 2327); format: functional;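 note: NIH-3T3 mouse fibroblasts cultured with fluconazole at 8 µg/mL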
[16] = C. albicans growth with fluconazole, confirmation, fluorescence, retest (AID 2467); format: functional, cell-based
[17] = test system: Streptococcus sp. 'group A'; assay: growth inhibition of control SK(-) GAS strain, dose response, counter-screen for streptokinase expression inhibitor project, luminescence, kanamycin, BacTiterGlo, confirmation (AID 1900); format: functional, organism-based
[18] = molecular target: T4, Streptokinase A (Streptococcus pyogenes serotype M1, UniProt P10520); assay: S. pyogenes streptokinase expression inhibitors, potency, dose response, plasminogen activation absorbance, OD405 (AID 1914); format: functional, Streptococcus pyogenes M1 GAS;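 note: secreted streptokinase activity via plasminogen activation per viability signal from cell pellet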
T4 sequence (P10520 whole entry): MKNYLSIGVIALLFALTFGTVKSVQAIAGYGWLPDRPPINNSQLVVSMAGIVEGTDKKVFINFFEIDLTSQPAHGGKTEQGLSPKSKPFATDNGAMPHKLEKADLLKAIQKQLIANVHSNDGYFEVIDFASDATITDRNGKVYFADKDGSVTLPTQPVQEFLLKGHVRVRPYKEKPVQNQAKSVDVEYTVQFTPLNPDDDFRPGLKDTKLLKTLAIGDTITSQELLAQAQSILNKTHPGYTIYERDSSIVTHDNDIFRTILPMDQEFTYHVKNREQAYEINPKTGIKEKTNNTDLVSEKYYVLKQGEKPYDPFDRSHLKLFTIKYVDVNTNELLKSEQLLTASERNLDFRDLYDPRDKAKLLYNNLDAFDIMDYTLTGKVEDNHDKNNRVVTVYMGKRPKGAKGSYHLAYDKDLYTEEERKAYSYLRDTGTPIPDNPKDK

[19] = test system: Streptococcus; assay: Group A Streptococcus viability loss, dose response, counter-screen for streptokinase expression inhibitor project, luminescence, BacTiterGlo (AID 1915); format: functional, organism-based;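 note: potency for reduction of bacterial viability or growth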
[20] = test system: INS1; assay: beta cell apoptosis inhibitors, cytokine rescue, dose response, luminescence, retest (AID 449756); format: functional, cell-based; conditions: Rattus norvegicus;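 note: cell death triggered by IL-1 beta plus TNF-alpha plus IFN-gamma mixture; protective hits raise ATP signal compared with cytokine alone wells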

SMILES: O=[N+]([O-])c1cccc(N/N=C/c2ccc(N3CCOCC3)cc2)c1
- EC50 [1]: 46.8 µM (active)
- EC50 [2]: 13.1 µM (active)

SMILES: CCOC(=O)c1sc(N(Cc2ccccc2)C(=O)CCl)nc1C
- EC50 [3]: 1.77 µM (active)
- EC50 [4]: 11.9 µM (active)
- EC50 [5]: 8.8 µM (active)
- EC50 [6]: 4.97 µM (inconclusive)
- AC50 [7]: 2.6 µM (active)
- EC50 [8]: 0.79 µM (active)

SMILES: CCCCNC(=O)c1ccc(N2CCC3(CC2)OCCO3)c([N+](=O)[O-])c1
- EC50 [9]: > 112 µM (not active)
- EC50 [10]: > 112 µM (not active)

SMILES: CC(C)OC(=O)c1cn(-c2ccccc2)nc1-c1ccc2c(c1)OCCO2
- IC50 [11]: 39.3 µM (not active)

SMILES: CCN(CC)CCCCNc1ncc2cc(-c3cc(OC)cc(OC)c3)c(NC(=O)NC(C)(C)C)nc2n1 [PD-173074]
- EC50 [12]: > 120 µM (not active)
- EC50 [13]: 12.8 µM (active)
- EC50 [14]: 9.24 µM (active)

SMILES: Cc1c(OC(C)C(=O)NCc2ccccn2)ccc2c3c(c(=O)oc12)CCCC3 (stereo not drawn)
- EC50 [9]: > 112 µM (not active)
- EC50 [10]: > 112 µM (not active)

SMILES: CCOC(=O)c1cc(-c2ccccc2)sc1NC(=O)C(C)OC(=O)c1cccnc1OCC (stereo not drawn)
- EC50 [9]: > 112 µM (not active)
- EC50 [10]: > 112 µM (not active)

SMILES: COC(=O)c1sc(NC(=O)c2ccoc2C)nc1C
- EC50 [9]: 2.44 µM (active)
- EC50 [10]: 5.71 µM (active)

SMILES: CC(=O)N(C)c1ccc(NC(=O)Nc2ccc(C)cc2)cc1
- IC50 [11]: 0.673 µM (not active)

SMILES: Cc1cc(Nc2cccc(Cl)c2Cl)n2ncnc2n1
- EC50 [15]: > 150 µM (inactive)
- EC50 [16]: 0.769 µM (active)

SMILES: O=c1c2ccccc2c(-c2ccc(O)cc2)nn1-c1cccc(C(F)(F)F)c1
- EC50 [12]: 16.6 µM (active)
- EC50 [13]: > 120 µM (not active)
- EC50 [14]: > 120 µM (not active)

SMILES: O=C1CCN(N=Nc2cccc(Cl)c2)N1
- EC50 [9]: > 112 µM (not active)
- EC50 [10]: > 112 µM (not active)
- AC50 [7]: 40.7 µM (active)
- EC50 [8]: 15.4 µM (active)

SMILES: O=C(O)c1ccc2c(=O)n3c(nc2c1)/C(=C/c1ccc(C(F)(F)F)cc1)CC3
- EC50 [3]: > 150 µM (not active)
- EC50 [4]: > 150 µM (not active)
- EC50 [5]: > 150 µM (inconclusive)
- EC50 [6]: > 150 µM (not active)

SMILES: O=[N+]([O-])/C=C/c1c(OCc2ccccc2)ccc2ccccc12
- EC50 [17]: 1.49 µM (active)
- EC50 [3]: 2.3 µM (inconclusive)
- EC50 [18]: 1.2 µM (active)
- EC50 [4]: 90.6 µM (inconclusive)
- EC50 [5]: 3.63 µM (inconclusive)
- EC50 [6]: 3.7 µM (active)
- EC50 [19]: 4.18 µM (active)

SMILES: COC(=O)c1sccc1NC(=O)Nc1ccc(OC)c(OC)c1
- EC50 [9]: 2.36 µM (active)
- EC50 [10]: 9.25 µM (active)

SMILES: Cc1ccc(C(=O)NC(=O)OCCn2c(C)cnc2[N+](=O)[O-])cc1
- EC50 [15]: > 160 µM (inconclusive)
- EC50 [16]: > 38 µM (not active)

SMILES: COc1cc(NC(=O)c2ccccc2NS(=O)(=O)c2ccc(Cl)s2)cc(OC)c1
- EC50 [15]: 14.5 µM (active)
- EC50 [16]: 4.13 µM (active)
- AC50 [20]: 5.95 µM (active)

SMILES: COc1cccc(N/C=C/C(=O)c2ccc(OC)c(OC)c2)c1
- EC50 [9]: 14.2 µM (active)
- EC50 [10]: 22.8 µM (active)

SMILES: COc1ccc(NC(=S)N2CCN(CCN3C(=O)c4cccc5cccc(c45)C3=O)CC2)cc1
- IC50 [11]: 24.2 µM (not active)

SMILES: O=C(c1cc(-c2ccccc2)[nH]n1)N1CCc2c([nH]c3ccccc23)C1c1ccccn1 (stereo not drawn)
- EC50 [15]: > 160 µM (inactive)
- EC50 [17]: 10.3 µM (active)
- EC50 [16]: 0.718 µM (active)
- EC50 [19]: 20.4 µM (active)

SMILES: O=C(N/N=C/c1ccc(Cl)c([N+](=O)[O-])c1)C1CC1
- IC50 [11]: 34.8 µM (not active)

SMILES: O=C1/C(=C\c2ccccc2)C2OCC=C3CN4CCC56c7ccccc7N1C5C2C3CC46 (stereo not drawn)
- EC50 [3]: 19.4 µM (active)
- EC50 [4]: > 150 µM (not active)
- EC50 [5]: > 75 µM (inconclusive)
- EC50 [6]: 15.3 µM (active)

SMILES: O=C(O)c1ccc(CN2C(=O)CSC2=S)cc1
- EC50 [15]: > 150 µM (inactive)
- EC50 [16]: 0.153 µM (active)

SMILES: OCCCNc1nc(-c2ccc(Cl)cc2)nnc1-c1ccc(Br)cc1
- IC50 [11]: 3.09 µM (not active)
